# Counter-ions that a name gives are not always drawn.
# Target: T1, rh beta tryptase (Homo sapiens, UniProt Q15661)
# T1 construct: purchased Promega
# Test: tryptase inhibition in vitro test (cleavage of N-p-tosyl-Gly-Pro-Lys-para-nitroaniline, p-nitroaniline measured at 405 nm)
# Assay type: biochemical
# Settings: rh beta tryptase 0.91 U/ml, substrate 0.6 mM, Tris HCl buffer with calcium and heparin, pH 7.4, 37° C., 5 minutes incubation; read-out: Tryptase-inhibiting activity
# Procedure: The compounds according to the invention are characterised by their tryptase-inhibiting activity. This ability to inhibit tryptase was investigated using the test described below.
# The measurement is carried out in Tris HCl buffer (100 mM), which additionally contains calcium (5 mM) and heparin ([…]), at pH 7.4. The standard used is rh beta tryptase which may be obtained commercially from Promega, for example. The substrate used is N-p-tosyl-Gly-Pro-Lys-para-nitroaniline in a concentration of 0.6 mM. The substrate is digested with tryptase to form p-nitroaniline which can be measured at 405 nm. Usually, an incubation period of 5 minutes and an incubation temperature of 37° C. are chosen. The enzyme activity used is 0.91 U/ml. The measurements are carried out in an Autoanalyser (Cobas Bio) made by Hofmann LaRoche. The potential inhibitory substances are used in concentrations of 10 μM in the screening, the inhibition of the tryptase being given in percent. The IC50 is determined at over 70% inhibition (concentration at which 50% of the enzyme activity is inhibited). After 5 minutes' pre-incubation of the potential inhibitory substances, the substrate is added to start the reaction, the formation of p-nitroaniline being taken as a measurement of the enzyme activity after 5 minutes, after testing the linearity.
# T1 sequence (Q15661 31-275): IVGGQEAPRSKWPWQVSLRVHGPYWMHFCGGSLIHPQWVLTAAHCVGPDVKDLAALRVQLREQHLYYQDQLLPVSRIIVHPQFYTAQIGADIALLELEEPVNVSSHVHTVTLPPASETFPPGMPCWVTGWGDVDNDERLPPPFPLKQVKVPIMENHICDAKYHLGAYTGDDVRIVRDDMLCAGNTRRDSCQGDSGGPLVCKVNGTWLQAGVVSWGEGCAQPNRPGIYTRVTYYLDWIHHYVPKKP
row,SMILES,IC50 [nM]
1,"Cn1c(CCc2ccc(C(=N)N)cc2)nc2cc(N(Cc3cccc(N)c3)C(=O)CN3CCC(Nc4ccccn4)CC3)ccc21 [Example 55, N-{2-[2-(4-Amidinophenyl)-ethyl]-1-methyl-benzimidazol-5-yl}-N-[3-aminophenyl-methyl]-2-[4-(2-pyridylamino)-piperid-1-yl]-acetamide, dihydrochloride]",4 to 30
2,"Cn1c(CCc2ccc(C(=N)N)cc2)nc2cc(N(Cc3ccccc3)C(=O)CN3CCC(Nc4ccccn4)CC3)ccc21 [Example 57, N-{2-[2-(4-Amidinophenyl)-ethyl]-1-methyl-benzimidazol-5-yl}-N-[benzyl]-2-[4-(2-pyridylamino)-piperid-1-yl]-acetamide, dihydrochloride]",4 to 30
3,"Cn1c(CCc2ccc(C(=N)N)cc2)nc2cc(N(Cc3ccccc3)C(=O)CN3CCC(Nc4ccccc4Cl)CC3)ccc21 [Example 58, N-{2-[2-(4-Amidinophenyl)-ethyl]-1-methyl-benzimidazol-5-yl}-N-benzyl-2-[4-(2-chlorophenylamino)-piperid-1-yl]-acetamide, dihydrochloride]",0.5 to 3
4,"Cn1c(CCc2ccc(C(=N)N)cc2)nc2cc(N(Cc3ccccc3)C(=O)CN3CCC(Nc4ccccc4F)CC3)ccc21 [Example 59, N-{2-[2-(4-Amidinophenyl)-ethyl]-1-methyl-benzimidazol-5-yl}-N-benzyl-2-[4-(2-fluorophenylamino)-piperid-1-yl]-acetamide, dihydrochloride]",0.5 to 3
5,"Cc1ccc(NC2CCN(CC(=O)N(C)c3ccc4c(c3)nc(CCc3ccc(C(=N)N)cc3)n4C)CC2)c(Cl)c1 [Example 61, N-{2-[2-(4-Amidinophenyl)-ethyl]-1-methyl-benzimidazol-5-yl}-N-methyl-2-[4-(2-chloro-4-methylamino)-piperid-1-yl]-acetamide, dihydrochloride]",0.5 to 3
6,"CN(C(=O)CN1CCC(Nc2ccc(Br)cc2Cl)CC1)c1ccc2c(c1)nc(CCc1ccc(C(=N)N)cc1)n2C [Example 62, N-{2-[2-(4-Amidinophenyl)-ethyl]-1-methyl-benzimidazol-5-yl}-N-methyl-2-[4-(2-chloro-4-bromoamino)-piperid-1-yl]-acetamide, dihydrochloride]",0.5 to 3
7,"Cc1ccccc1NC1CCN(CC(=O)N(C)c2ccc3c(c2)nc(CCc2ccc(C(=N)N)cc2)n3C)CC1 [Example 63, dihydrochloride]",4 to 30
8,"CN(C(=O)CN1CCC(Nc2ccccc2C(C)(C)C)CC1)c1ccc2c(c1)nc(CCc1ccc(C(=N)N)cc1)n2C [Example 64, dihydrochloride]",4 to 30
9,"CN(C(=O)CN1CCC(Nc2ccc(Cl)cc2Br)CC1)c1ccc2c(c1)nc(CCc1ccc(C(=N)N)cc1)n2C [Example 65, N-{2-[2-(4-Amidinophenyl)-ethyl]-1-methyl-benzimidazol-5-yl}-N-methyl-2-[4-(2-bromo-4-chloroamino)-piperid-1-yl]-acetamide, dihydrochloride]",0.5 to 3
10,"Cc1ccc(NC2CCN(CC(=O)N(C)c3ccc4c(c3)nc(CCc3ccc(C(=N)N)cc3)n4C)CC2)c(Br)c1 [Example 66, N-{2-[2-(4-Amidinophenyl)-ethyl]-1-methyl-benzimidazol-5-yl}-N-methyl-2-[4-(2-bromo-4-methylamino)-piperid-1-yl]-acetamide, dihydrochloride]",0.5 to 3
11,"CN(C(=O)CN1CCC(Nc2ccc(C(F)(F)F)cc2Br)CC1)c1ccc2c(c1)nc(CCc1ccc(C(=N)N)cc1)n2C [Example 67, N-{2-[2-(4-Amidinophenyl)-ethyl]-1-methyl-benzimidazol-5-yl}-N-methyl-2-[4-(2-bromo-4-trifluoromethylamino)-piperid-1-yl]-acetamide, dihydrochloride]",4 to 30
12,"CC(C)c1ccc(NC2CCN(CC(=O)N(C)c3ccc4c(c3)nc(CCc3ccc(C(=N)N)cc3)n4C)CC2)c(Br)c1 [Example 68, N-{2-[2-(4-Amidinophenyl)-ethyl]-1-methyl-benzimidazol-5-yl}-N-methyl-2-[4-(2-bromo-4-isopropylamino)-piperid-1-yl]-acetamide, dihydrochloride]",31 to 1000
13,"CN(C(=O)CN1CCC(Nc2ccc(C(C)(C)C)cc2Cl)CC1)c1ccc2c(c1)nc(CCc1ccc(C(=N)N)cc1)n2C [Example 69, N-{2-[2-(4-Amidinophenyl)-ethyl]-1-methyl-benzimidazol-5-yl}-N-methyl-2-[4-(2-chloro-4-tert.butylamino)-piperid-1-yl]-acetamide, dihydrochloride]",31 to 1000
14,"Cn1c(CCc2ccc(C(=N)N)cc2)nc2cc(N(Cc3cccc4ccccc34)C(=O)Nc3ccccc3)ccc21 [Example 72, N-{2-[2-(4-Amidinophenyl)-ethyl]-1-methyl-benzimidazol-5-yl}-N-[naphth-1-ylmethyl]-N′-phenyl-urea, hydrochloride]",31 to 1000
15,"COc1cccc(NC(=O)N(Cc2cccc3ccccc23)c2ccc3c(c2)nc(CCc2ccc(C(=N)N)cc2)n3C)c1 [Example 73, N-{2-[2-(4-Amidinophenyl)-ethyl]-1-methyl-benzimidazol-5-yl}-N-[naphth-1-ylmethyl]-N′-(3-methoxy)-phenyl, hydrochloride]",31 to 1000
16,"Cn1c(CCc2ccc(C(=N)N)cc2)nc2cc(N(Cc3cccc4ccccc34)C(=O)Nc3cccc(Cl)c3)ccc21 [Example 74, N-{2-[2-(4-Amidinophenyl)-ethyl]-1-methyl-benzimidazol-5-yl}-N-[naphth-1-ylmethyl]-N′-(3-chloro)-phenyl, hydrochloride]",31 to 1000
17,"Cn1c(CCc2ccc(C(=N)N)cc2)nc2cc(N(Cc3cccc4ccccc34)C(=O)Nc3cccc4ccccc34)ccc21 [Example 75, N-{2-[2-(4-Amidinophenyl)-ethyl]-1-methyl-benzimidazol-5-yl}-N-[naphth-1-ylmethyl]-N′-(1-naphthyl)-urea, hydrochloride]",4 to 30
18,"Cn1c(CCc2ccc(C(=N)N)cc2)nc2cc(N(Cc3cccc4ccccc34)C(=O)NC3CCC(Nc4ccccn4)CC3)ccc21 (stereo not drawn) [Example 76, N-{2-[2-(4-Amidinophenyl)-ethyl]-1-methyl-benzimidazol-5-yl}-N-[naphth-1-ylmethyl]-N′-[4-(2-pyridyl)-amino-cyclohexyl)-urea, hydrochloride]",31 to 1000
19,"Cn1c(CCc2ccc(C(=N)N)cc2)nc2cc(N(Cc3cccc4ccccc34)C(=O)NC3(Cc4ccccc4)CCNCC3)ccc21 [Example 77, N-{2-[2-(4-Amidinophenyl)-ethyl]-1-methyl-benzimidazol-5-yl}-N-[naphth-1-ylmethyl]-N′-[4-(benzyl)-piperidin-4-yl)-urea, hydrochloride]",4 to 30
20,"CN(C)CCCN(C)C(=O)N(Cc1cccc2ccccc12)c1ccc2c(c1)nc(CCc1ccc(C(=N)N)cc1)n2C [Example 78, N-{2-[2-(4-Amidinophenyl)-ethyl]-1-methyl-benzimidazol-5-yl}-N-[naphth-1-ylmethyl]-N′-methyl-N′-(3-dimethylamino-propyl)-urea, hydrochloride]",31 to 1000
21,"Cn1c(CCc2ccc(C(=N)N)cc2)nc2cc(N(Cc3cccc4ccccc34)C(=O)N3CCC(Nc4ccccn4)CC3)ccc21 [Example 79, N-{2-[2-(4-Amidinophenyl)-ethyl]-1-methyl-benzimidazol-5-yl}-N-[naphth-1-ylmethyl]-N′-[4-(2-pyridyl)-amino]-piperid-1-ine-urea, hydrochloride]",31 to 1000
22,"CN(C)CCCN(C)C(=O)Nc1ccc2c(c1)nc(CCc1ccc(C(=N)N)cc1)n2C [Example 81, N-{2-[2-(4-Amidinophenyl)-ethyl]-1-methyl-benzimidazol-5-yl}-N′-methyl-N′-(3-dimethylaminopropyl)-urea, hydrochloride]",31 to 1000
23,"Cn1c(CCc2ccc(C(=N)N)cc2)nc2cc(NC(=O)N3CCC(Nc4ccccn4)CC3)ccc21 [Example 82, N-{2-[2-(4-Amidinophenyl)-ethyl]-1-methyl-benzimidazol-5-yl}-N′-[4-(2-pyridyl)-amino]-piperid-1-ine urea, hydrochloride]",31 to 1000
24,"CN(C(=O)CN1CCC(Nc2ccc(F)cc2Cl)CC1)c1ccc2c(c1)nc(CCc1ccc(CN)cc1)n2C [Example 84, Ditrifluoroacetate]",4 to 30
25,"CN(C(=O)CN1CCC(Nc2ccc(Cl)cc2)CC1)c1ccc2c(c1)nc(CCc1ccc(C(=N)N)cc1)n2C [Example 105, N-{2-[2-(4-Amidinophenyl)-ethyl]-1-methyl-benzimidazol-5-yl}-N-methyl-2-[4-(4-chlorophenylamino)-piperid-1-yl]-acetamide, dihydrochloride]",0.5 to 3
26,"CN(C(=O)CN1CCC(Nc2cccc(Cl)c2)CC1)c1ccc2c(c1)nc(CCc1ccc(C(=N)N)cc1)n2C [Example 106, N-{2-[2-(4-Amidinophenyl)-ethyl]-1-methyl-benzimidazol-5-yl}-N-methyl-2-[4-(3-chlorophenylamino)-piperid-1-yl]-acetamide, dihydrochloride]",0.5 to 3
27,"CN(C(=O)CN1CCC(Nc2ccc(Cl)c(Cl)c2)CC1)c1ccc2c(c1)nc(CCc1ccc(C(=N)N)cc1)n2C [Example 107, N-{2-[2-(4-Amidinophenyl)-ethyl]-1-methyl-benzimidazol-5-yl}-N-methyl-2-[4-(3,4-dichlorophenylamino)-piperid-1-yl]-acetamide, dihydrochloride]",0.5 to 3
